Data from patent US8519183B2, “Uses for amino acid anticonvulsants” (Research Corporation Technologies, Inc., priority 2000, dated 2013).
Where “and” joins values, the source holds several entries; their conditions need not be identical. Equal values may be shown once.

Legend:
[1] = biological target: glycine strychnine-insensitive site of the NMDA receptor complex (Homo sapiens, UniProt Q05586); experiment: affinity at the glycine strychnine-insensitive site of the NMDA receptor complex; format: binding
glycineb/D-serine site = biological target: T1, glycineb/D-serine site (Rattus norvegicus, UniProt P35439); experiment: threshold extension in rats, reversal by D-serine; format: in vivo; conditions: a glycine agonist, dose dependent fashion
T1 construct: from tissue; host or cells: living rat (in vivo)

[2] = test system: ICR derived male or female mice; experiment: Analgesia, Acetic Acid Writhing; format: in vivo; conditions: for No. of Writhes, X ± SEM: group of 3 mice; for No. of Writhes (individual animal): one hour before acetic acid, 5 to 10 minute period; for % Inh.: relative to vehicle control
Source text: In the first animal study in Example 1, the degree of pain experienced by the mice after injection by acetic acid is seen by the number of writhes. If the mice experience no pain, there is no writhing.
The protocol is based on the acetic acid writhing test in mice, developed by R. Koster, et al. Fed. Proc, 18, 412 […], and referred to a Koster test and Hunskarai, S., et al., J. Neuroscience Meth. 14: 69-76, 1985.
Reduction in the number of writhes by 50 percent or more (≧50%) per group of animals observed during the 5 to 10 minute period after acetic acid administration, relative to a vehicle treated control group, indicated analgesic activity.

[3] = test system: ICR derived male or female mice; experiment: formalin induced hind paw licking; format: in vivo; conditions: for Licking Time, Ave.: 5 mice
Protocol: The degree of pain is determined by measuring the decrease in the amount of time the animal spends licking the formalin-injected paw after administration of the drug.
Reduction of the induced hind paw licking time recorded during the following 20 to 30 minutes period by 50 percent or more (50%) indicated analgesic activity.

male ICR mice = experiment: radiant heat induced tail flick response; format: in vivo
Protocol: Groups of 4 male ICR mice weighing 22±2 gms were employed. A dose (30 mg/kg) of test compound dissolved in a vehicle of saline was administered intraperitoneally. The control group received vehicle alone. At pretreatment (0 minute) a focused beam of radiant heat was applied to the middle dorsal surface of the tail to elicit a tail flick response within 6-7.5 seconds in pre-treated animals. A maximum cut-off time of 15 seconds was set. The time required to elicit a pain response was recorded for each animal at 0 and 30 minutes following administration of test compound. Prolongation by 50 percent or more (≧50%) of the time required to elicit a tail flick indicated analgesic activity.

[4] = biological target: T2, serotonin 5-HT1A receptor (Rattus norvegicus, UniProt P19327); experiment: 5-MeODMT-induced head twitch; format: in vivo, rats
T2 construct: from tissue; host or cells: living Long Evans derived rat (in vivo)
T2 sequence (P19327 1-422): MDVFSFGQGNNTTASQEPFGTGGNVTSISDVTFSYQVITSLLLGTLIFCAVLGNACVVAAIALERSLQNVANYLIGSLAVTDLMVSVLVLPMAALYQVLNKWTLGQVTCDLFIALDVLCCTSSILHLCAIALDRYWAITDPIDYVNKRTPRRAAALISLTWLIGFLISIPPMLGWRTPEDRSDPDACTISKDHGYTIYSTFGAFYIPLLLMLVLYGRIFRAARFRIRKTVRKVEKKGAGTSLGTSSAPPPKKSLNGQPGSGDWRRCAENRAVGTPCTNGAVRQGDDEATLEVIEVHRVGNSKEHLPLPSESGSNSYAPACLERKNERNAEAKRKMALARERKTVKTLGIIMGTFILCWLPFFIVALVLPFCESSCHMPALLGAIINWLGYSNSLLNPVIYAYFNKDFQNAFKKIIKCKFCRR
Protocol: Test substance was administered PO (30 mg/kg) to a group of 3 Long Evans derived male or female rats weighing 150±20 gms one hour before injection of 5-MeODMT (5-methoxy-N,N-dimethyltryptamine, 3 mg/kg IP).

NMDA receptor = NMDA receptor (Mus musculus, UniProt P35438); experiment: NMDA receptor agonism/antagonism after ICVT administration
Protocol: Test substance was administered ICVT (intracerebroventricular, 30 μg in 5 μl/mouse). The appearance of convulsions/mortality in 2 or more (≧2) of 3 ICR derived male or female mice weighing 22±2 gms within the 5 minutes thereafter would indicate NMDA receptor agonism. At a dose where no significant agonist activity was seen within 5 minutes, ability to inhibit NMDA (60 mg/kg IV)—induced Tonic convulsions/mortality in 2 or more (≧2) of 3 ICR derived male or female mice weighing 22±gms within the following 5 minutes indicated NMDA receptor antagonist activity.

COC[C@@H](NC(C)=O)C(=O)NCc1ccccc1 [Compound I, (R)-2-Acetamido-N-benzyl-3-methoxypropionamide]
IC50 [1]: 5.3 µM
effects on threshold extension in rats, reversal by D-serine (glycineb/D-serine site): can be reversed by D-serine
No. of Writhes, X ± SEM ([2]; 30 mg/kg PO): X ± SEM 15 ± 1.7
No. of Writhes (individual animal) ([2]; 30 mg/kg PO): 18 and 12 and 15
% Inh. ([2]; 30 mg/kg PO): 4%
No. of Writhes, X ± SEM ([2]; 100 mg/kg PO): X ± SEM 0 ± 0
No. of Writhes (individual animal) ([2]; 100 mg/kg PO): 0
% Inh. ([2]; 100 mg/kg PO): 100%
animals showing slight convulsions ([2]; 100 mg/kg, 15 minutes after oral administration, mice): Compound I, at a dose of 100 mg/kg, 3 out of 3 animals showed slight convulsions 15 minutes after oral administration.
% Inh. ([3]; 30 mg/kg PO): 22%
Licking Time, Ave. ([3]; 30 mg/kg PO): 100 s
% Inh. ([3]; 100 mg/kg PO): 100%
Licking Time, Ave. ([3]; 100 mg/kg PO): 0 s
Licking Time, Indiv. ([3]; 100 mg/kg PO, 20 to 30 minutes after formalin): 0 s
animals showing slight convulsions ([3]; 100 mg/kg, at 15 minutes after oral administration, mice): Compound I, at a dose of 100 mg/kg, 5 out of 5 animals showed slight convulsions at 15 minutes after oral administration.
radiant heat induced tail flick response (in words) (male ICR mice; 30 mg/Kg): unaffected
% Inh. (male ICR mice; 30 mg/kg IP): 0%
Response Time 30 Min. (individual animal) (male ICR mice; 30 mg/kg IP, 30 minutes after administration, cut-off 15 seconds): 5.8 and 5.0 and 6.0 and 6.2
Response Time 30 Min., X (male ICR mice; 30 mg/kg IP, mean of 4 mice): 5.8
Response Time 0 Min., X (male ICR mice; 30 mg/kg IP, mean of 4 mice, pretreatment): 6.7
Response Time 0 Min. (individual animal) (male ICR mice; 30 mg/kg IP, pretreatment (0 minute)): 6.4 (2×) and 7.3 and 6.5
potentiation of 5-MeODMT-induced heat twitch ([4]; 30 mg/Kg PO): No potentiation
Head Twitch, Ave. ([4]; 30 mg/kg PO, 3 rats): 1
animals showing tremors without convulsions (NMDA receptor; 30 μg/mouse, after intracerebroventricular administration): 2 out of 3
Agonism (mice with convulsions/mortality within 5 minutes) (NMDA receptor; ICVT 30 μg/mouse, N 3): 0
Antagonism (mice protected from NMDA 60 mg/kg IV induced tonic convulsions/mortality) (NMDA receptor; ICVT 30 μg/mouse, N 3): 1
